Data reported in US10344060B2 (priority 2013, dated 2019).
Where two headings read alike, the source gives them in different places.

Experiments:
Experiment in all cases: cell-based
Type in all cases: cell-based
hNav1.7 = hNav1.7 (Homo sapiens, UniProt Q15858); details: read-out: PX hNav1.7 Tonic IC50
hNav1.4 = hNav1.4 (Homo sapiens, UniProt P35499); details: Table 12; for IC50: PatchXpress, tonic block, read-out: PX hNav1.4 Tonic IC50; for Nav1.4/Nav1.7: ratio of PX tonic IC50 values
hNav1.6 = hNav1.6 (Homo sapiens, UniProt Q9UQD0); details: Table 15; for Nav1.6/Nav1.7: ratio of PX tonic IC50 values; for IC50: read-out: PX hNav1.6 Tonic IC50
Chain of hNav1.6 (Q9UQD0 whole entry): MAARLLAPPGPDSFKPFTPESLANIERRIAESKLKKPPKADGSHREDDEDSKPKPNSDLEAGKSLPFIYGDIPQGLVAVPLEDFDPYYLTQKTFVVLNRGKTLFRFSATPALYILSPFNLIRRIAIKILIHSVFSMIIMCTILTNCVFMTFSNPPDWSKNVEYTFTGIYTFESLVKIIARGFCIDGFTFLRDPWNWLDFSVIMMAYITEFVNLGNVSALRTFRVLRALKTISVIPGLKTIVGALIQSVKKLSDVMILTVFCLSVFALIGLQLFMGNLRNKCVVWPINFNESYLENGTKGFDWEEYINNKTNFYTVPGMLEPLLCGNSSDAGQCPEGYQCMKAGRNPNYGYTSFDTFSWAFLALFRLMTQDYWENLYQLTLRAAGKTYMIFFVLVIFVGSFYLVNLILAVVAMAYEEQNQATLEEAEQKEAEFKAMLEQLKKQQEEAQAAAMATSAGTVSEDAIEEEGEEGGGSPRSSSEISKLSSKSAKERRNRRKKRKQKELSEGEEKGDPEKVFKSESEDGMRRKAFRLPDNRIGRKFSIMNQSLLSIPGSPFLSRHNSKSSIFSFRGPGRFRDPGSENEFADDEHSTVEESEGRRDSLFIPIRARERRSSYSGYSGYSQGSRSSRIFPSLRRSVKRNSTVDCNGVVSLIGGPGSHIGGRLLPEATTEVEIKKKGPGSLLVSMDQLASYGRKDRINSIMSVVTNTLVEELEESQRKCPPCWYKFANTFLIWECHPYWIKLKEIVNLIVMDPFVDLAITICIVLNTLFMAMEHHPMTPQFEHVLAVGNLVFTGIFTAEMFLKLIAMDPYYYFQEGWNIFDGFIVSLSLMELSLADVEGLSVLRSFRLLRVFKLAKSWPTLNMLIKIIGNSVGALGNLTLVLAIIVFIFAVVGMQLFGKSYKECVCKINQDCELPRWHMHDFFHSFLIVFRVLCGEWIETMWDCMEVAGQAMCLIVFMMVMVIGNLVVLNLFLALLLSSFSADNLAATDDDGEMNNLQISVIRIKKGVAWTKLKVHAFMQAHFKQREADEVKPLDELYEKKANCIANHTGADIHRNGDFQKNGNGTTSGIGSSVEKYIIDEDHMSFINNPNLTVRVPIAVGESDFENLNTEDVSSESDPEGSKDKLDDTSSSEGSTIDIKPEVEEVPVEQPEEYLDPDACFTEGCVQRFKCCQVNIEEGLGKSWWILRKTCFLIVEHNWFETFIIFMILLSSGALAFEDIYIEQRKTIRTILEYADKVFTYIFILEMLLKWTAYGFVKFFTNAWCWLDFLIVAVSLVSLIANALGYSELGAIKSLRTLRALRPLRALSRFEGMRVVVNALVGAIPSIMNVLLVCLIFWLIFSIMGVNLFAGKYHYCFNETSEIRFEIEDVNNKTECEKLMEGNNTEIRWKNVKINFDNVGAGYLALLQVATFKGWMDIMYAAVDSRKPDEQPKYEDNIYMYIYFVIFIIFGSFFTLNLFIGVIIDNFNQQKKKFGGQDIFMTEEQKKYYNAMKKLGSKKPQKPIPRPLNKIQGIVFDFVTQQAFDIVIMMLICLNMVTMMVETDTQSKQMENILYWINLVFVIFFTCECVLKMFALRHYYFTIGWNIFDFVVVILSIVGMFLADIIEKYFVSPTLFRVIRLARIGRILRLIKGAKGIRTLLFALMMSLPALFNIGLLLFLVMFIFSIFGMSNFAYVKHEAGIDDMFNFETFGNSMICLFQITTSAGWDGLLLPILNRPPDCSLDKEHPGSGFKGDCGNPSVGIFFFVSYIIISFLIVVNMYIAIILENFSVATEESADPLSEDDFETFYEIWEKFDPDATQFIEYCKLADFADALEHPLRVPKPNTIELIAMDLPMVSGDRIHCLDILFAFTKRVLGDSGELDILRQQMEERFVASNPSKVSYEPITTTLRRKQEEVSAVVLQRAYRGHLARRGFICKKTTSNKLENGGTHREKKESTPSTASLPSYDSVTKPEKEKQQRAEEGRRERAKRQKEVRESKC

[1] = Table 12, PatchXpress, tonic block

Chain of hNav1.7 (Q15858 whole entry): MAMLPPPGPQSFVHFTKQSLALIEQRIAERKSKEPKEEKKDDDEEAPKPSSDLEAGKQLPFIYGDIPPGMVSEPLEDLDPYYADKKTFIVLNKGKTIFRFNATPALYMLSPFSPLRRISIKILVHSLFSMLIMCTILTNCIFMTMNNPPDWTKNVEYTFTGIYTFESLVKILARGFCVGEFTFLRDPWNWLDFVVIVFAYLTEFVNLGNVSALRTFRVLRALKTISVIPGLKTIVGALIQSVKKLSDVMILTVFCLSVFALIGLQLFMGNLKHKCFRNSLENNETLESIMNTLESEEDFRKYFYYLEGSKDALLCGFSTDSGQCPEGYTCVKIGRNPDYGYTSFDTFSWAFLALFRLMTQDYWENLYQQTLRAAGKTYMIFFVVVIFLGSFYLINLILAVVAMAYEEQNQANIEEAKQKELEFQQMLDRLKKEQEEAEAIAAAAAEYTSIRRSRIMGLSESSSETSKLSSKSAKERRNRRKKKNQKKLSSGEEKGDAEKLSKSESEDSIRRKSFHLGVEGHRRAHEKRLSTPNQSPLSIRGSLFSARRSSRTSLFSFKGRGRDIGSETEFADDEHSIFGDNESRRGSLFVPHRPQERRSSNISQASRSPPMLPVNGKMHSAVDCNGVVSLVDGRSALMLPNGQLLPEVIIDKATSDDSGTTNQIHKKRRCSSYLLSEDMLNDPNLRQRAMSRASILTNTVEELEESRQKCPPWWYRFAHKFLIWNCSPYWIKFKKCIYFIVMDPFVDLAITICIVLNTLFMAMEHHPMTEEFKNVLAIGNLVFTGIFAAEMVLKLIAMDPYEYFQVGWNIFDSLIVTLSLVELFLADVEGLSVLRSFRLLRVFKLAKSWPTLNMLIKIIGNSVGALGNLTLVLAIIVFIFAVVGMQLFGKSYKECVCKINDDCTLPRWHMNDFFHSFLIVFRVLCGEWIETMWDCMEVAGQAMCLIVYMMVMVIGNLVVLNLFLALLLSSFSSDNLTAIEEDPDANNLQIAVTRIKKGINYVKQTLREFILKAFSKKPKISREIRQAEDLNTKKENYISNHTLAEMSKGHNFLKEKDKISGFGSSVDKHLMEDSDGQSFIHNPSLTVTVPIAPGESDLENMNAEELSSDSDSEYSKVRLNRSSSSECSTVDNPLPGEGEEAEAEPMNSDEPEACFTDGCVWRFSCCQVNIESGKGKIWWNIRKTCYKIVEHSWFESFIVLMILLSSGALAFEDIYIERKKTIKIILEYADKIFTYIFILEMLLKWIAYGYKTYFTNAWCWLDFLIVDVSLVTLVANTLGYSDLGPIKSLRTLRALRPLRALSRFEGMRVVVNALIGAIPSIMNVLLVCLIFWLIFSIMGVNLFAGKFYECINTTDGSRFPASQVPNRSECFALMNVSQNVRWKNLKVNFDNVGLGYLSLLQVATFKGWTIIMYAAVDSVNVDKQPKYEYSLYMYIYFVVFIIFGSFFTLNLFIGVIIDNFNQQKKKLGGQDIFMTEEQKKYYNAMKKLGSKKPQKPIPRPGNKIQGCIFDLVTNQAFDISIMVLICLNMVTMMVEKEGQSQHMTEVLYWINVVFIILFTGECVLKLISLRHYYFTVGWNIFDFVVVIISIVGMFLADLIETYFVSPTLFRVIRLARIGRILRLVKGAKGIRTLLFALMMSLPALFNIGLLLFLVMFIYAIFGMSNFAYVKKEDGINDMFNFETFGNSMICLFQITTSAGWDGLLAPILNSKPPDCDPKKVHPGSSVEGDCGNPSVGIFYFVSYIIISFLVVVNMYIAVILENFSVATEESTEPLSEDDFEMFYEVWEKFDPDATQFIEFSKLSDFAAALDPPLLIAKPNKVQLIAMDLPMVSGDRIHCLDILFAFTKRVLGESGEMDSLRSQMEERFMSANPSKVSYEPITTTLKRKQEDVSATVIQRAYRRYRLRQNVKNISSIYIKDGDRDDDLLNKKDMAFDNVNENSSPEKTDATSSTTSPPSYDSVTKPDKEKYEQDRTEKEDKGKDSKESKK

Q: Which results are given for C#CC[C@H](N)C(=O)N[C@@H](CCC(=O)O)C(=O)N[C@H]1CSSC[C@@H]2NC(=O)[C@@H]3CSSC[C@@H](C(=O)N[C@@H](CCCNC(=N)N)C(=O)N[C@@H](CCCCN)C(=O)N[C@@H](CCC(=O)O)C(=O)N[C@H](C(N)=O)[C@@H](C)CC)NC(=O)[C@H](Cc4c[nH]c5ccccc45)NC(=O)[C@H](CC(C)C)NC(=O)[C@H](CCCCN)NC(=O)[C@H](CSSC[C@H](NC(=O)[C@H]([C@@H](C)O)NC(=O)[C@H](Cc4c[nH]c5ccccc45)NC(=O)[C@H](CCCC)NC(=O)[C@H](Cc4c[nH]c5ccccc45)NC(=O)[C@H](CCCCN)NC(=O)[C@H](CCC(N)=O)NC1=O)C(=O)N[C@@H](CC(=O)O)C(=O)N[C@@H](CCC(=O)O)C(=O)N[C@@H](CCCCN)C(=O)N[C@@H](CCCNC(=N)N)C(=O)N[C@@H](C)C(=O)N3)NC(=O)[C@H](CCCNC(=N)N)NC(=O)[C@H](CC(C)C)NC(=O)CNC(=O)[C@H](CCC(=O)O)NC2=O [compound 739]?
A: IC50 (hNav1.7; [1]): 5.55 nM; IC50 (hNav1.4): 1280 nM; Nav1.4/Nav1.7 (hNav1.4): 231; Nav1.6/Nav1.7 (hNav1.6): 395; IC50 (hNav1.6): 2190 nM

Q: C#CC[C@H](NC(=O)[C@@H](N)CCC(=O)O)C(=O)N[C@@H](CCC(=O)O)C(=O)N[C@H]1CSSC[C@@H]2NC(=O)[C@@H]3CSSC[C@@H](C(=O)N[C@@H](CCCNC(=N)N)C(=O)N[C@@H](CCCCN)C(=O)N[C@@H](CCC(=O)O)C(=O)N[C@H](C(N)=O)[C@@H](C)CC)NC(=O)[C@H](Cc4c[nH]c5ccccc45)NC(=O)[C@H](CC(C)C)NC(=O)[C@H](CCCCN)NC(=O)[C@H](CSSC[C@H](NC(=O)[C@H]([C@@H](C)O)NC(=O)[C@H](Cc4c[nH]c5ccccc45)NC(=O)[C@H](CCCC)NC(=O)[C@H](Cc4c[nH]c5ccccc45)NC(=O)[C@H](CCCCN)NC(=O)[C@H](CCC(N)=O)NC1=O)C(=O)N[C@@H](CC(=O)O)C(=O)N[C@@H](CCC(=O)O)C(=O)N[C@@H](CCCCN)C(=O)N[C@@H](CCCNC(=N)N)C(=O)N[C@@H](C)C(=O)N3)NC(=O)[C@H](CCCNC(=N)N)NC(=O)[C@H](CC(C)C)NC(=O)CNC(=O)[C@H](CCC(=O)O)NC2=O [compound 741] was tested. Which IC50 (hNav1.7; [1]) did it give?
A: 5.59 nM

Q: And the IC50 (hNav1.4)?
A: 1680 nM

Q: What about the Nav1.4/Nav1.7 (hNav1.4) of the same compound?
A: 302

Q: What about the Nav1.6/Nav1.7 (hNav1.6) of the same compound?
A: 1014

Q: And the IC50 (hNav1.6)?
A: 5660 nM

Q: Which results are given for C#CC[C@H](N)C(=O)N[C@@H](Cc1ccc(O)cc1)C(=O)N[C@H]1CSSC[C@@H]2NC(=O)[C@@H]3CSSC[C@@H](C(=O)N[C@@H](CCCNC(=N)N)C(=O)N[C@@H](CCCCN)C(=O)N[C@@H](CC(=O)O)C(=O)N[C@H](C(N)=O)[C@@H](C)CC)NC(=O)[C@H](Cc4c[nH]c5ccccc45)NC(=O)[C@H](CC(C)C)NC(=O)[C@H](CCCCN)NC(=O)[C@H](CSSC[C@H](NC(=O)[C@H]([C@@H](C)O)NC(=O)[C@H](Cc4c[nH]c5ccccc45)NC(=O)[C@H](CCCC)NC(=O)[C@H](Cc4c[nH]c5ccccc45)NC(=O)[C@H](CCCCN)NC(=O)[C@H](CCC(N)=O)NC1=O)C(=O)N[C@@H](CC(=O)O)C(=O)N[C@@H](CO)C(=O)N[C@@H](CCCCN)C(=O)N[C@@H](CCCNC(=N)N)C(=O)N[C@@H](C)C(=O)N3)NC(=O)[C@H](CCCNC(=N)N)NC(=O)[C@H](CC(C)C)NC(=O)CNC(=O)[C@H](CCC(=O)O)NC2=O [compound 723]?
A: IC50 (hNav1.7; [1]): 5.98 nM; IC50 (hNav1.4): 78.4 nM; Nav1.4/Nav1.7 (hNav1.4): 13; Nav1.6/Nav1.7 (hNav1.6): 270; IC50 (hNav1.6): 1620 nM

Q: How did the IC50 (hNav1.7; [1]) turn out when C#CC[C@H](NC(=O)[C@@H](N)CCC(=O)O)C(=O)N[C@H]1CSSC[C@@H]2NC(=O)[C@@H]3CSSC[C@@H](C(=O)N[C@@H](CCCNC(=N)N)C(=O)N[C@@H](CCCCN)C(=O)N[C@@H](CCC(=O)O)C(=O)N[C@H](C(N)=O)[C@@H](C)CC)NC(=O)[C@H](Cc4c[nH]c5ccccc45)NC(=O)[C@H](CC(C)C)NC(=O)[C@H](CCCCN)NC(=O)[C@H](CSSC[C@H](NC(=O)[C@H]([C@@H](C)O)NC(=O)[C@H](Cc4c[nH]c5ccccc45)NC(=O)[C@H](CCCC)NC(=O)[C@H](Cc4c[nH]c5ccccc45)NC(=O)[C@H](CCCCN)NC(=O)[C@H](CCC(N)=O)NC1=O)C(=O)N[C@@H](CC(=O)O)C(=O)N[C@@H](CO)C(=O)N[C@@H](CCCCN)C(=O)N[C@@H](CCCNC(=N)N)C(=O)N[C@@H](CCC(=O)O)C(=O)N3)NC(=O)[C@H](CCCNC(=N)N)NC(=O)[C@H](CC(C)C)NC(=O)CNC(=O)[C@H](CCC(=O)O)NC2=O [compound 738] was run?
A: 0.563 nM

Q: What about the IC50 (hNav1.7; Table 15) of the same compound?
A: 0.525 nM

Q: And the IC50 (hNav1.4)?
A: 246 nM

Q: And the Nav1.4/Nav1.7 (hNav1.4)?
A: 437

Q: What about the Nav1.6/Nav1.7 (hNav1.6) of the same compound?
A: 1071

Q: What about the IC50 (hNav1.6) of the same compound?
A: 563 nM

Q: What does the source list for C#CC[C@H](N)C(=O)N[C@@H](CCC(=O)O)C(=O)N[C@H]1CSSC[C@@H]2NC(=O)[C@@H]3CSSC[C@@H](C(=O)N[C@@H](CCCNC(=N)N)C(=O)N[C@@H](CCCCN)C(=O)N[C@@H](CCC(=O)O)C(=O)N[C@H](C(N)=O)[C@@H](C)CC)NC(=O)[C@H](Cc4c[nH]c5ccccc45)NC(=O)[C@H](CC(C)C)NC(=O)[C@H](CCCCN)NC(=O)[C@H](CSSC[C@H](NC(=O)[C@H]([C@@H](C)O)NC(=O)[C@H](Cc4c[nH]c5ccccc45)NC(=O)[C@H](CCCC)NC(=O)[C@H](Cc4c[nH]c5ccccc45)NC(=O)[C@H](CCCCN)NC(=O)[C@H](CCC(N)=O)NC1=O)C(=O)N[C@@H](CC(=O)O)C(=O)N[C@@H](CO)C(=O)N[C@@H](CCCCN)C(=O)N[C@@H](CCCNC(=N)N)C(=O)N[C@@H](CCC(=O)O)C(=O)N3)NC(=O)[C@H](CCCNC(=N)N)NC(=O)[C@H](CC(C)C)NC(=O)CNC(=O)[C@H](CCC(=O)O)NC2=O [compound 743]?
A: IC50 (hNav1.7; [1]): 1.36 nM; IC50 (hNav1.4): 670 nM; Nav1.4/Nav1.7 (hNav1.4): 494; Nav1.6/Nav1.7 (hNav1.6): 1727; IC50 (hNav1.6): 2340 nM

Q: How did the IC50 (hNav1.7; [1]) turn out when C#CC[C@H](N)C(=O)N[C@@H](Cc1ccc(O)cc1)C(=O)N[C@H]1CSSC[C@@H]2NC(=O)[C@@H]3CSSC[C@@H](C(=O)N[C@@H](CCCNC(=N)N)C(=O)N[C@@H](CCCCN)C(=O)N[C@@H](CCC(=O)O)C(=O)N[C@H](C(N)=O)[C@@H](C)CC)NC(=O)[C@H](Cc4c[nH]c5ccccc45)NC(=O)[C@H](CC(C)C)NC(=O)[C@H](CCCCN)NC(=O)[C@H](CSSC[C@H](NC(=O)[C@H]([C@@H](C)O)NC(=O)[C@H](Cc4c[nH]c5ccccc45)NC(=O)[C@H](CCCC)NC(=O)[C@H](Cc4c[nH]c5ccccc45)NC(=O)[C@H](CCCCN)NC(=O)[C@H](CCC(N)=O)NC1=O)C(=O)N[C@@H](CC(=O)O)C(=O)N[C@@H](CCC(=O)O)C(=O)N[C@@H](CCC(=O)O)C(=O)N[C@@H](CCCNC(=N)N)C(=O)N[C@@H](C)C(=O)N3)NC(=O)[C@H](CCCNC(=N)N)NC(=O)[C@H](CC(C)C)NC(=O)CNC(=O)[C@H](CCC(=O)O)NC2=O [compound 744] was run?
A: 3.8 nM

Q: What about the IC50 (hNav1.4) of the same compound?
A: 1420 nM

Q: And the Nav1.4/Nav1.7 (hNav1.4)?
A: 374

Q: And the Nav1.6/Nav1.7 (hNav1.6)?
A: 217

Q: And the IC50 (hNav1.6)?
A: 825 nM

Q: For C#CC[C@H](N)C(=O)N[C@@H](Cc1ccc(O)cc1)C(=O)N[C@H]1CSSC[C@@H]2NC(=O)[C@@H]3CSSC[C@@H](C(=O)N[C@@H](CCCNC(=N)N)C(=O)N[C@@H](CCCCN)C(=O)N[C@@H](CCC(=O)O)C(=O)N[C@H](C(N)=O)[C@@H](C)CC)NC(=O)[C@H](Cc4c[nH]c5ccccc45)NC(=O)[C@H](CC(C)C)NC(=O)[C@H](CCCCN)NC(=O)[C@H](CSSC[C@H](NC(=O)[C@H](CCC(=O)O)NC(=O)[C@H](Cc4c[nH]c5ccccc45)NC(=O)[C@H](CCCC)NC(=O)[C@H](Cc4c[nH]c5ccccc45)NC(=O)[C@H](CCCCN)NC(=O)[C@H](CCC(N)=O)NC1=O)C(=O)N[C@@H](CC(=O)O)C(=O)N[C@@H](CO)C(=O)N[C@@H](CCCCN)C(=O)N[C@@H](CCCNC(=N)N)C(=O)N[C@@H](C)C(=O)N3)NC(=O)[C@H](CCCNC(=N)N)NC(=O)[C@H](CC(C)C)NC(=O)CNC(=O)[C@H](CCC(=O)O)NC2=O [compound 712], which IC50 (hNav1.7; [1]) is on record?
A: 16.4 nM

Q: What about the IC50 (hNav1.4) of the same compound?
A: 1580 nM

Q: And the Nav1.4/Nav1.7 (hNav1.4)?
A: 97

Q: And the Nav1.6/Nav1.7 (hNav1.6)?
A: 395

Q: What about the IC50 (hNav1.6) of the same compound?
A: 6460 nM

Q: Which IC50 (hNav1.7; [1]) does the source give for C#CC[C@H](N)C(=O)N[C@@H](Cc1ccc(O)cc1)C(=O)N[C@H]1CSSC[C@@H]2NC(=O)[C@@H]3CSSC[C@@H](C(=O)N[C@@H](CCCNC(=N)N)C(=O)N[C@@H](CCCCN)C(=O)N[C@@H](CCC(=O)O)C(=O)N[C@H](C(N)=O)[C@@H](C)CC)NC(=O)[C@H](Cc4c[nH]c5ccccc45)NC(=O)[C@H](CC(C)C)NC(=O)[C@H](CCCCN)NC(=O)[C@H](CSSC[C@H](NC(=O)[C@H]([C@@H](C)O)NC(=O)[C@H](Cc4c[nH]c5ccccc45)NC(=O)[C@H](CCCC)NC(=O)[C@H](Cc4c[nH]c5ccccc45)NC(=O)[C@H](CCCCN)NC(=O)[C@H](CCC(N)=O)NC1=O)C(=O)N[C@@H](CC(=O)O)C(=O)N[C@@H](CO)C(=O)N[C@@H](CCCCN)C(=O)N[C@@H](CCCNC(=N)N)C(=O)N[C@@H](C)C(=O)N3)NC(=O)[C@H](CCCCN)NC(=O)[C@H](CC(C)C)NC(=O)CNC(=O)[C@H](CCC(=O)O)NC2=O [compound 721] here?
A: 0.519 nM

Q: And the IC50 (hNav1.4)?
A: 185 nM

Q: And the Nav1.4/Nav1.7 (hNav1.4)?
A: 357

Q: What about the Nav1.6/Nav1.7 (hNav1.6) of the same compound?
A: 471

Q: And the IC50 (hNav1.6)?
A: 245 nM

Q: How did the Nav1.4/Nav1.7 (hNav1.4) turn out when C#CC[C@H](N)C(=O)N[C@@H](Cc1ccc(O)cc1)C(=O)N[C@H]1CSSC[C@@H]2NC(=O)[C@@H]3CSSC[C@@H](C(=O)N[C@@H](CCCNC(=N)N)C(=O)N[C@@H](CCCCN)C(=O)N[C@@H](CCC(=O)O)C(=O)N[C@H](C(N)=O)[C@@H](C)CC)NC(=O)[C@H](Cc4c[nH]c5ccccc45)NC(=O)[C@H](CC(C)C)NC(=O)[C@H](CCC(=O)O)NC(=O)[C@H](CSSC[C@H](NC(=O)[C@H]([C@@H](C)O)NC(=O)[C@H](Cc4c[nH]c5ccccc45)NC(=O)[C@H](CCCC)NC(=O)[C@H](Cc4c[nH]c5ccccc45)NC(=O)[C@H](CCCCN)NC(=O)[C@H](CCC(N)=O)NC1=O)C(=O)N[C@@H](CC(=O)O)C(=O)N[C@@H](CO)C(=O)N[C@@H](CCCCN)C(=O)N[C@@H](CCCNC(=N)N)C(=O)N[C@@H](C)C(=O)N3)NC(=O)[C@H](CCCNC(=N)N)NC(=O)[C@H](CC(C)C)NC(=O)CNC(=O)[C@H](CCC(=O)O)NC2=O [compound 722] was run?
A: >442

Q: And the Nav1.6/Nav1.7 (hNav1.6)?
A: >442
